Values quoted from earlier work in PubChem BioAssay AID1259409 (Chemical Carcinogenesis Research Information System (CCRIS), 2018).

Tested on: rodent chemically induced tumor inhibition, incidence and multiplicity
Experiment: CCRIS tumor inhibitor studies

## NCCS
Carcinogen: N-METHYL-N'-NITRO-N-NITROSOGUANIDINE, 70-25-7, Dose [Inhibitor]: 0, 25 MG/KG IN 0.9% SALINE PLUS 2 MG/KG PROPANOLOL IN OLIVE OIL 1/2 D BEGINNING 1 WK POST LAST CARCINOGEN DOSE AND CONTI, Route [Inhibitor]: SUBCUTANEOUS, Species: RAT, Strain/Sex: WISTAR/MALE, Target Tissue: Type of Lesion: STOMACH: ADENOCARCINOMA, Dose [Carcinogen]: 100 UG/ML IN DRINKING WATER FOR 25 WK, Promoter: NONE USED
  tumour outcome (control, treated, inhibition, significance): 16/20 (80%), 2/22 (9%), 89%, p<0.001
Carcinogen: N-METHYL-N'-NITRO-N-NITROSOGUANIDINE, 70-25-7, Dose [Inhibitor]: 0, 25 MG/KG IN 0.9% SALINE PLUS 50 MG/KG CIMETIDINE IN OLIVE OIL 1/2 D BEGINNING 1 WK POST LAST CARCINOGEN DOSE AND CONT, Route [Inhibitor]: SUBCUTANEOUS, Species: RAT, Strain/Sex: WISTAR/MALE, Target Tissue: Type of Lesion: STOMACH: ADENOCARCINOMA, Dose [Carcinogen]: 100 UG/ML IN DRINKING WATER FOR 25 WK, Promoter: NONE USED
  tumour outcome (control, treated, inhibition, significance): 16/20 (80%), 12/21 (57%), 29%, not significant
Carcinogen: N-METHYL-N'-NITRO-N-NITROSOGUANIDINE, 70-25-7, Dose [Inhibitor]: 0, 25 MG/KG IN 1 ML/KG OLIVE OIL 1/2 D FOR STUDY DURATION BEGINNING POST CARCINOGEN TREATMENT (STUDY DURATION: 52 WK), Route [Inhibitor]: SUBCUTANEOUS, Species: RAT, Strain/Sex: WISTAR/MALE, Target Tissue: Type of Lesion: GLANDULAR STOMACH: ADENOCARCINOMA, Dose [Carcinogen]: 50 UG/ML DRINKING WATER FOR 25 WK
  tumour outcome (control, treated, inhibition, significance): 13/18 (72%), 6/20 (30%), 58%, p<0.05
Carcinogen: N-METHYL-N'-NITRO-N-NITROSOGUANIDINE, 70-25-7, Dose [Inhibitor]: 0, 50 MG/KG IN 0.9% SALINE 1/2 D BEGINNING POST CARCINOGEN DOSE AND CONTINUING FOR DURATION OF STUDY (STUDY DURATION: 52, Route [Inhibitor]: SUBCUTANEOUS, Species: RAT, Strain/Sex: WISTAR/MALE, Target Tissue: Type of Lesion: STOMACH: ADENOCARCINOMA, Dose [Carcinogen]: 50 UG/ML DRINKING WATER FOR 25 WK, Promoter: NONE USED
  tumour outcome (control, treated, inhibition, significance): 12/19 (63%), 5/20 (25%), 58%, p<0.05
Carcinogen: N-METHYL-N'-NITRO-N-NITROSOGUANIDINE, 70-25-7, Dose [Inhibitor]: 0, 280 MG/KG 1/2 D FOR STUDY DURATION (STUDY DURATION: 52 WK), Route [Inhibitor]: SUBCUTANEOUS, Species: RAT, Strain/Sex: WISTAR/MALE, Target Tissue: Type of Lesion: STOMACH: ADENOCARCINOMA, Dose [Carcinogen]: 50 UG/ML DRINKING WATER FOR 25 WK, Promoter: NONE USED
  tumour outcome (control, treated, inhibition, significance): 75%, 18%, 76%, p<0.01
Carcinogen: N-METHYL-N'-NITRO-N-NITROSOGUANIDINE, 70-25-7, Dose [Inhibitor]: 0.4% IN DIET FOR 26 WK GIVEN POST CARCINOGEN (STUDY DURATION: 52 WK), Route [Inhibitor]: ORAL, Species: RAT, Strain/Sex: WISTAR/MALE, Target Tissue: Type of Lesion: STOMACH: ADENOCARCINOMA, Dose [Carcinogen]: 50 UG/ML DRINKING WATER FOR 25 WK, Promoter: NONE USED
  tumour outcome (control, treated, inhibition, significance): 16/20 (80%), 9/20 (45%), 44%, p<0.05
Carcinogen: TRANS-5-AMINO-3-[2-(5-NITRO-2-FURYL)VINYL]-1,2,4-OXADIAZOLE;SQL8506, 28754-68-9, Carcinogen: TRANS-5-AMINO-3-[2-(5-NITRO-2-FURYL)VINYL]-1,2,4-OXADIAZOLE;SQL8506, 28754-68-9, Dose [Inhibitor]: 210 MG/KG 16 HR BEFORE THE 1ST CARCINOGEN DOSE FOLLOWED BY IP INJECTIONS (210 MG/KG) IMMEDIATELY BEFORE EACH DOSE OF CAR, Route [Inhibitor]: INTRAMUSCULAR/INTRAPERITONEAL, Species: MOUSE, Strain/Sex: CD-1/FEMALE, Target Tissue: Type of Lesion: HEMATOPOIETIC: MYELOID LEUKEMIA, Dose [Carcinogen]: 1 G/KG 2/D FOR 5 D EVERY 4 WK FOR 3 COURSES TREATMENT, Promoter: NONE USED
  tumour outcome (control, treated, inhibition, significance): 7/137 (5%), 0/28 (0%), 100%, not calculated
Carcinogen: TRANS-5-AMINO-3-[2-(5-NITRO-2-FURYL)VINYL]-1,2,4-OXADIAZOLE;SQL8506, 28754-68-9, Carcinogen: TRANS-5-AMINO-3-[2-(5-NITRO-2-FURYL)VINYL]-1,2,4-OXADIAZOLE;SQL8506, 28754-68-9, Dose [Inhibitor]: 210 MG/KG 16 HR BEFORE THE 1ST CARCINOGEN DOSE FOLLOWED BY IP INJECTIONS (210 MG/KG) IMMEDIATELY BEFORE EACH DOSE OF CAR, Route [Inhibitor]: INTRAMUSCULAR/INTRAPERITONEAL, Species: MOUSE, Strain/Sex: CD-1/FEMALE, Target Tissue: Type of Lesion: LYMPHOID TISSUE: NONTHYMIC LYMPHOMA, Dose [Carcinogen]: 1 G/KG 2/D FOR 5 D EVERY 4 WK FOR 3 COURSES OF TREATMENT, Promoter: NONE USED
  tumour outcome (control, treated, inhibition, significance): 8/137 (6%), 0/28 (0%), 100%, not calculated
Carcinogen: TRANS-5-AMINO-3-[2-(5-NITRO-2-FURYL)VINYL]-1,2,4-OXADIAZOLE;SQL8506, 28754-68-9, Carcinogen: TRANS-5-AMINO-3-[2-(5-NITRO-2-FURYL)VINYL]-1,2,4-OXADIAZOLE;SQL8506, 28754-68-9, Dose [Inhibitor]: 210 MG/KG 16 HR BEFORE THE 1ST CARCINOGEN DOSE FOLLOWED BY IP INJECTIONS (210 MG/KG) IMMEDIATELY BEFORE EACH DOSE OF CAR, Route [Inhibitor]: INTRAMUSCULAR/INTRAPERITONEAL, Species: MOUSE, Strain/Sex: CD-1/FEMALE, Target Tissue: Type of Lesion: LYMPHOID TISSUE: THYMIC LYMPHOMA, Dose [Carcinogen]: 1 G/KG 2/D FOR 5 D EVERY 4 WK FOR 3 COURSES OF TREATMENT, Promoter: NONE USED
  tumour outcome (control, treated, inhibition, significance): 22/137 (16%), 1/28 (4%), 75%, not calculated
Carcinogen: TRANS-5-AMINO-3-[2-(5-NITRO-2-FURYL)VINYL]-1,2,4-OXADIAZOLE;SQL8506, 28754-68-9, Carcinogen: TRANS-5-AMINO-3-[2-(5-NITRO-2-FURYL)VINYL]-1,2,4-OXADIAZOLE;SQL8506, 28754-68-9, Dose [Inhibitor]: 210 MG/KG 16 HR BEFORE THE 1ST CARCINOGEN DOSE FOLLOWED BY IP INJECTIONS (210 MG/KG) IMMEDIATELY BEFORE EACH DOSE OF CAR, Route [Inhibitor]: INTRAMUSCULAR/INTRAPERITONEAL, Species: MOUSE, Strain/Sex: CD-1/FEMALE, Target Tissue: Type of Lesion: STOMACH: SQUAMOUS CARCINOMA, Dose [Carcinogen]: 1 G/KG 2/D FOR 5 D EVERY 4 WK FOR 3 COURSES OF TREATMENT, Promoter: NONE USED
  tumour outcome (control, treated, inhibition, significance): 60/137 (44%), 13/28 (46%), -4%, not calculated
